Source: patent publication EP0639183B1, “NITROGEN OXIDES OF AZA- AND DIAZA-ANTHRACENEDIONE DERIVATIVES, THEIR PREPARATION AND THEIR USE AS ANTITUMOR AGENTS” (BOEHRINGER MANNHEIM ITALIA S.P.A., priority 1991, dated 1992)
Values after ≈ are worked out from the molar mass of the structure shown. Values joined by “and” are separate entries in the source; they are usually repeats but may differ in a detail not shown here. Equal values may be shown once. Read-outs that look alike come from different tables or passages of the source.

Legend:
[1] = test system: murine L 1210 leukemia; details: cited from earlier work
[2] = test system: murine L 1210 leukemia; details: cited from earlier work; for in vivo T/C: murine L 1210 leukemia
[3] = test system: human colon adenocarcinoma cell line (Lovo); test: in vitro cytotoxic activity, MTT assay, Lovo cell line; format: cell-based; details: 144 hours drug-exposure
Protocol: (§1) The evaluation of the "in vitro" cytotoxic activity of the compounds of the invention was performed using a human colon adenocarcinoma cell line (Lovo) isolated from a metastatic nodule and a subline with aquired resistance to a number of antitumor agents, among which doxorubicin, VP-16 and vincristine. […] Cancer, (1986), 54, 515). The compounds were tested according to the MTT assay (Mosman, T. "Rapid Colorimetric assay for cellular growth and survival: application to proliferation and cytotoxicity assay", J. Immunol. Methods, (1983), 65, 55-63; Green. L.M., "Rapid Colorimetric assay for cell viability; application to the quantitation of cytotoxic and growth inhibitory lymphokines", J. Immunol. Methods, (1984), 70, 257-268) in comparison with ametantrone and doxorubicin.

[4] = test system: Lovo/DX; test: in vitro cytotoxic activity, MTT assay, resistant subline Lovo/DX; format: cell-based, human; details: for resistance index RI (ratio of the IC50 for the resistant cell line to the IC50 for the sensitive cell line): Lovo/DX versus Lovo
Protocol: as §1

[5] = test system: P 388 MURINE LEUKEMIA; test: P 388 murine leukemia model in vivo (iv/iv 1,4,7); parameters: species or system CD2Fl mice
Protocol: Studies of the biological activity "in vivo" of representative compounds of the invention were performed using the P 388 and L 1210 murine leukemia models.
(§2) P 388 Murine leukemia cells were intravenously (iv) injected in CD2Fl mice. Treatment was initiated approximately 24 hours after tumor transplantation and dosages of the drug were administered iv according to preestablished protocols, usually at 3-day intervals. The studies were done over a 60 day period and the date of death for each animal was recorded. The % T/C was determined using the median survival time (MST) for each group according to the formula % T/C = [(MST treated)/(MST control)] x 100. [formula]

[6] = test system: MURINE LEUKEMIA L1210; test: L 1210 murine leukemia model in vivo (iv/iv 1,4,7); parameters: species or system CD2Fl mice
Protocol: The antitumor activity of representative compounds of this invention was evaluated also in the L 1210 murine leukemia model.
as §2, with “L 1210” for “P 388 Murine”, “mice and treatment” for “mice. Treatment”, “transplantation. Dosages” for “transplantation and dosages”, “drugs” for “drug”, “60-day” for “60 day”

[7] = in animals; cited from earlier work
[8] = P 388, iv on days 1,4,7, Dose 18 mg/kg/day
[9] = P 388, iv on days 1,4,7, Dose 27 mg/kg/day
[10] = L1210, iv on days 1,4,7, Dose 40 mg/kg/day
[11] = L1210, iv on days 1,4,7, Dose 60 mg/kg/day
[12] = P 388, iv on days 1,4,7, Dose 2 mg/kg/day
[13] = P 388, iv on days 1,4,7, Dose 3 mg/kg/day
[14] = P 388, iv on days 1,4,7, Dose 4 mg/kg/day
[15] = L1210, iv on days 1,4,7, Dose 2 mg/kg/day
[16] = L1210, iv on days 1,4,7, Dose 3 mg/kg/day

CN(C)CCNc1ccc(NCCN(C)C)c2c1C(=O)c1cccnc1C2=O [Compound 5a]
in vitro ID50 [1]: 0.16 µg/mL
antitumor activity in vivo (in words) ([2]; as reported in table II): inactive in vivo
in vivo T/C ([2]; Dose 50 mg/kg): 130

CCN(CC)CCNc1ccc(NCCN(CC)CC)c2c1C(=O)c1cccnc1C2=O [Compound 5b]
in vitro ID50 [1]: 2.4 µg/mL
in vivo T/C ([2]; Dose 100 mg/kg): toxic

CN(C)CCCNc1ccc(NCCCN(C)C)c2c1C(=O)c1cccnc1C2=O [Compound 5c]
in vitro ID50 [1]: 1.7 µg/mL

CN(C)CCNc1ccc(NCCN(C)C)c2c1C(=O)c1ccccc1C2=O [Compound 6a]
in vitro ID50 [1]: 0.08 µg/mL
in vivo T/C ([2]; Dose 30 mg/kg): 150

CCN(CC)CCNc1ccc(NCCN(CC)CC)c2c1C(=O)c1ccccc1C2=O [Compound 6b]
in vitro ID50 [1]: 0.30 µg/mL

CN(C)CCNc1ccc(NCCN(C)C)c2c1C(=O)c1cc[n+]([O-])cc1C2=O [Compound 7a, 6,9-bis[N-(2-dimethylaminoethyl)amino]benzo[g]isoquinoline-5,10-dione-2-oxide]
IC50 [3]: 0.44 µg/mL (≈ 1.11 µM)
IC50 ([4]; Homo sapiens, Lovo/DX resistant subline): 2.68 µg/mL (≈ 6.74 µM)
resistance index RI (ratio of the IC50 for the resistant cell line to the IC50 for the sensitive cell line) [4]: 6.1

NCCNc1ccc(NCCN)c2c1C(=O)c1cc[n+]([O-])cc1C2=O.O=C(O)/C=C\C(=O)O.O=C(O)/C=C\C(=O)O [Compound 7b, 6,9-bis[N-(2-aminoethyl)amino]benzo[g]isoquinoline-5,10-dione-2-oxide dimaleate]
T/C% (range) [5, 8]: 122%
TOX (Number of toxic deaths/total number of mice) [5, 8]: 0/8
T/C% (range) [5, 9]: 133%
TOX (Number of toxic deaths/total number of mice) [5, 9]: 0/8
TOX (Number of toxic deaths/total number of mice) ([5]; P 388, iv on days 1,4,7, Dose 40 mg/kg/day): 1/24
T/C% (range) ([5]; P 388, iv on days 1,4,7, Dose 40 mg/kg/day, dimaleate, 40 mg/kg/day): 144% and 166% and 194%
TOX (Number of toxic deaths/total number of mice) ([5]; P 388, iv on days 1,4,7, Dose 60 mg/kg/day): 0/17
T/C% (range) ([5]; P 388, iv on days 1,4,7, Dose 60 mg/kg/day, dimaleate, 60 mg/kg/day): 200% and 225%
TOX (Number of toxic deaths/total number of mice) ([5]; P 388, iv on days 1,4,7, Dose 80 mg/kg/day): 4/17
T/C% (range) ([5]; P 388, iv on days 1,4,7, Dose 80 mg/kg/day, dimaleate, 80 mg/kg/day): 211% and 262%
LTS [6, 10]: 0/8
T/C% (range) [6, 10]: 266%
TOX (Number of toxic deaths/total number of mice) [6, 10]: 0/8
LTS [6, 11]: 0/10
T/C% (range) [6, 11]: 333%
TOX (Number of toxic deaths/total number of mice) [6, 11]: 0/10

O=C1c2c(O)ccc(O)c2C(=O)c2c(NCCNCCO)ccc(NCCNCCO)c21 [MITOX, 5,8-dihydroxy-1,4-bis([2-(2-hydroxyethylamino)ethyl]amino]anthracene-9,10-dione]
T/C% (range) [5, 12]: 171(154-212) %
TOX (Number of toxic deaths/total number of mice) [5, 12]: 0/50
T/C% (range) [5, 13]: 185(167-217) %
TOX (Number of toxic deaths/total number of mice) [5, 13]: 12/84
T/C% (range) [5, 14]: 118(89-133) %
TOX (Number of toxic deaths/total number of mice) [5, 14]: 20/24
LTS [6, 15]: 0/8
T/C% (range) [6, 15]: 208%
TOX (Number of toxic deaths/total number of mice) [6, 15]: 0/8
LTS [6, 16]: 0/8
T/C% (range) [6, 16]: 216%
TOX (Number of toxic deaths/total number of mice) [6, 16]: 0/8

O=C1c2ccccc2C(=O)c2c(NCCNCCO)ccc(NCCNCCO)c21 [ametantrone, 1,4-bis{[2-(2-hydroxyethylamino)ethyl]amino]anthracene-9,10-dione]
IC50 [3]: 0.33 ± 0.1 µg/mL (≈ 0.8 µM)
resistance index RI (ratio of the IC50 for the resistant cell line to the IC50 for the sensitive cell line) [4]: 101.2
less potent and cardiotoxic than mitoxantrone [7]: about 10 fold

COc1cccc2c1C(=O)c1c(O)c3c(c(O)c1C2=O)C[C@@](O)(C(=O)CO)C[C@@H]3O[C@H]1C[C@H](N)[C@H](O)[C@H](C)O1 [doxorubicin]
resistance index RI (ratio of the IC50 for the resistant cell line to the IC50 for the sensitive cell line) [4]: 142.7
